How the values were obtained:
[1] = tested on: P-388 murine leukemia cells; settings: in vitro; cited from earlier work
[2] = tested on: KB-VIN multidrug-resistant human cancer cell line; test: In vitro cytotoxicity; format: cell-based
[3] = tested on: KB nasopharyngeal human cancer cell line; test: In vitro cytotoxicity; format: cell-based; settings: KB cells (value in parentheses)

C=C(CC[C@@H](C)[C@H]1CC[C@H]2C3=C(C(=O)C[C@]12C)[C@@]1(C)CCC(=O)[C@@H](C)[C@@H]1CC3=O)C(C)C(=O)O (stereo partly shown) [Compound 11, zhankuic acid A]
cytotoxicity against P-388 murine leukemia cells [1]: significant cytotoxicity

C=C(CC[C@@H](C)[C@H]1CC[C@@]2(O)C3=C(C(=O)C[C@]12C)[C@@]1(C)CCC(=O)[C@@H](C)C1C[C@@H]3O)C(C)C(=O)O (stereo partly drawn) [Compound 4, 7β,14α-dihydroxy-3,11-dioxo-4α-methylergosta-8,24(28)-dien-26-oic acid]
substrate of P-glycoprotein (P-gp) ([2]; not told): not substrates of P-glycoprotein

C=C(CC[C@@H](C)[C@H]1CC[C@H]2C3=C(C(=O)[C@H](O)[C@]12C)[C@@]1(C)CC[C@@H](O)[C@@H](C)[C@@H]1CC3=O)C(C)C(=O)O (stereo partly shown) [Compound 13, zhankuic acid C]
cytotoxicity against P-388 murine leukemia cells [1]: significant cytotoxicity

eburicol [Compound 19]
% inhibition at 20 μM, KB [3]: 34%
% inhibition at 20 μM, KB-VIN ([2]; 20 μM, KB-VIN cells (value in parentheses)): 18%

C=C(CC[C@@H](C)[C@H]1CC[C@H]2C3=C(C(=O)C[C@]12C)[C@@]1(C)CCC(=O)[C@@H](C)[C@@H]1C[C@@H]3O)C(C)C(=O)OC (stereo partly drawn) [Compound 6, methyl 7β-hydroxy-3,11-dioxo-4α-methylergosta-8,24(28)-dien-26-oate]
substrate of P-glycoprotein (P-gp) ([2]; inferred from lack of cross-resistance shown by KB-VIN): not substrates of P-glycoprotein

COc1cc([C@@H]2c3cc4c(cc3[C@@H](O[C@@H]3O[C@@H]5CO[C@@H](C)O[C@H]5[C@H](O)[C@H]3O)[C@H]3COC(=O)[C@H]23)OCO4)cc(OC)c1O [etoposide, reference compound]
activity in KB-VIN relative to KB (cross-resistance) ([2]; KB-VIN versus KB): at least eight-fold less active

Reference: paper PMC2993773 (Journal of natural products, 2010)
